Source: US12677850B2, “Stevia blends containing rebaudioside B” (Tate & Lyle Solutions USA LLC, priority 2011, dated 2026)

Tests used:
[1] = tested on: panelists (descriptive panel); experiment: Descriptive panel: flavor attributes and intensities as a function of rebaudioside B content (Example 6); assay type: in vivo, human; conditions: for Anise, comparison between the samples / Artificial Sweetener/Chemical, comparison between the samples / Sweetness, comparison between the samples / Total Flavor, comparison between the samples / True Bitter, comparison between the samples / Mouthcoating, comparison between the samples / Total Off Flavor, comparison between the samples: significant at the 95% confidence level
Protocol: A descriptive panel was used to quantify flavor attributes and intensities of varying levels of rebaudioside B added to rebaudioside A (which was 97% pure and contained 0.62% rebaudioside B). […] An 8% sucrose solution as a control. The solutions were prepared in neutral pH water. Other high intensity sweeteners included in the testing were Aspartame at 500 ppm, ASK at 750 ppm, Sucralose at 250 ppm, and Stevia at 500 ppm.
Before conducting the testing the ten panelists were extensively trained in the use of standardized vocabulary to describe the appearance, aroma, flavor, and texture of a wide variety of products in order to rate the samples for sweetness, bitterness, off flavor, chemical or artificial sweetener flavor, anise, and mouth coating. Each such attribute was evaluated on a first and second sip, and on after-taste. The testing began with a session to orient the panelists during which they tasted the samples and discussed the flavor characteristics. They also tasted and discussed references for “sweet”, “bitter”, and “anise”.
During the second and third days of testing, the panelists evaluated the samples for the various attributes and rated them on a scale from none to extreme that encompasses all food ingredient products, not just sweeteners. The products and solutions set forth in Table 19 were used to “anchor” the panelist to the scales.
Eight samples were evaluated per session. A 7 minute rest break was given between each sample and a 15 minute break was given after the first 4 samples had been evaluated. Two evaluations (i.e. replicates) were obtained from each panelist for each product; therefore, a total of 20 judgments were obtained for each product. During data collection, the panelists were instructed to indicate the intensity of each sensory characteristic by placing a vertical slash on 15-cm line scales. The serving order was balanced, with products seen approximately an equal number of times in each possible position. In the waiting room, ambient Alhambra drinking water, unsalted soda crackers, and celery were provided for cleansing the palate between samples.
Slash marks on the line scales were converted to numbers ranging from 1 to 15 by SIMS, the computerized sensory data collection system. Mean intensities were calculated for each sensory characteristic. Analysis of Variance and Duncan's Multiple Range Test, where appropriate, were used to determine significant differences among the samples for each attribute. When panelist-by-product interactions were significant, the mean square of the interaction term, instead of the mean square of the error term, was used in calculation of the product F values.
The flavor attributes were also compared between the samples.

[2] = assay type: physicochemical; conditions: pH 3
Protocol: To determine the solubility of rebaudioside A and rebaudioside B in certain solutions, four stock solutions were prepared. A 10× concentrated citric acid/sodium citrate pH 3 stock buffer solution was prepared by dissolving 0.9 g anhydrous citric acid and 0.26 g of sodium citrate dihydrate in water to make 100 mL of buffer (0.047 M citric acid+0.0088 M sodium citrate). A 2500 ppm (nominal) solution of rebaudioside A was prepared by dissolving 0.125 g of GLG RA 97 to make 50 mL of solution. A 2500 ppm (nominal) solution of stevioside was prepared by dissolving 0.125 g of GLG STV 97 to make 50 mL of solution. A 1000 ppm (nominal) solution of rebaudioside B was prepared by diluting 56 mL of a solution assayed at 1790 ppm to make 100 mL of solution.
These solutions were mixed as 1 mL total amounts by micropipetting the volumes, in microliters, into 1.5 mL microcentrifuge tubes As shown in Table 14.
After standing for […] (~100 hours), the tubes were spun in a bench top microcentrifuge to pelletize the precipitate. The clear supernate was sampled into vials and assayed for glycosides using a reverse phase high performance liquid chromatograph (HPLC) gradient method with UV detection (Waters 2695 Separations Module equipped with a Waters 2487 Dual X Absorbance Detector or equivalent instrumentation) that is summarized in Table 15. The HPLC conditions were as follows:
The supernatant data collected from the HPLC were processed using DESIGN EXPERT 8 software. Briefly, the data were entered into the program as “factor” data as a 2 factor-5 level general factorial design as the nominal data which were then converted to numerical data and replaced by the actual HPLC results. The software then selected a model that predicted the concentration (solubility) of rebaudioside B as a function of the concentration of rebaudioside A and stevioside in the supernatant. The software also calculated a number of statistical factors that indicated the significance of the model parameters.

[3] = tested on: Tate & Lyle employees (taste panel); experiment: Paired comparison test for sweetness and preference in pH 3.1 citric acid buffer (Examples 1 and 2); assay type: in vivo, human
Protocol: A commercial blend of a steviol glycosides was dissolved in 0.0056 M citric acid buffer pH 3.1. A solution containing a commercially available sweetening composition containing 97% rebaudioside A was similarly prepared. Thirty-one […] employees participated in paired comparison tests for sweetness and preference. The products were made up in pH 3.1 citric acid buffer (0.9 grams anhydrous citric […], Decatur, IL) and 026 grams sodium citrate dihydrate ([…], Decatur, IL) per liter and tested at room temperature in two ounce soufflé cups label with random three-digit codes. The presentation order was rotated. The panelists were asked to identify the solution that was sweeter and which they like better. The ballot was presented and the data was collected with SIMS sensory software (Sensory Computer Systems, LLC, Morristown, NJ). Bottled water, a 2% sucrose solution, and unsalted crackers were available for the panelists to clear their palates before and during testing. The results of the sweetness and preference questions were analyzed with the binomial test and the Thurstonian d' calculated. The p-value for a one-tailed binomial test is calculated as [formula] where c is the number of successes, n is the number of trials, and p0 is the chance probability. A test is considered statistically significant when the p-value is less than the a priori set alpha risk. The two-tailed p-value is double the one-tailed p-value as calculated above. Thurstonian d' is a linear measure of psychophysical difference. A d' of 1 is generally considered to be a just-noticeable-difference (JND) where a stimulus will be judge stronger in 75% of the trials. The Thurstonian d' is independent of test method and for paired comparison tests is calculated as pc=Φ(d'/√{square root over (2)}) where pc is the proportion of successes, and Φ(•) is the cumulative distribution function of the standard normal distribution. These statistical terms are more fully defined in standard textbooks on the subject such as “Sensory Discrimination Tests and Measurements”, Jian Bi (Blackwell Publishing, 2006). The instructions for the paired comparison test were: • (i) It is important that you rinse before and between samples. • (ii) Clear your palate with a bite of cracker. Then rinse with the sugar water. […] Pick the sample that you like more and pick the sample that is sweeter. They may or may not be the same sample. If you are not sure or don't have a preference then pick either one. The questions for the paired comparison test were: • (i) Which of these two samples do you like more?, • (ii) Which of the two samples is sweeter? The glycoside blend of a steviol glycosides was dissolved in 0.0056 M citric acid buffer pH 3.1. A solution containing a commercially available sweetening composition containing 97% rebaudioside A was similarly prepared. The two solutions were presented to a panel of […] employees and they were asked to identify the solution that was sweeter and which they like better using the same instructions and questions as set forth above. The results of the sweetness and preference questions were analyzed with the binomial test and the Thurstonian d' calculated as set forth above. A taste panel was asked to compare a commercial mixture of rebaudioside A and stevioside to a 500 ppm sample of 97% rebaudioside A. The glycoside blend of steviol glycosides was dissolved in 0.0056 M citric acid buffer pH 3.1. A solution containing a commercially available sweetening composition containing 97% rebaudioside A was similarly prepared. Sample presentation was rotated and the samples of the two solutions (at room temperature) were presented to a panel of […] employees and they were asked to identify the solution that was sweeter and which they like better using the same instructions and questions as in Example 1. […] Another panel was asked to compare a mixture of rebaudioside B and Stevioside. The glycoside blend of steviol glycosides was dissolved in 0.0056 M citric acid buffer pH 3.1. […]

[4] = 900 ppm rebaudioside A+rebaudioside B in neutral pH water, 8% sucrose control, 15-cm line scale converted to 1 to 15, aftertaste
[5] = 900 ppm rebaudioside A+rebaudioside B in neutral pH water, 8% sucrose control, 15-cm line scale converted to 1 to 15, first sip
[6] = 900 ppm rebaudioside A+rebaudioside B in neutral pH water, 8% sucrose control, 15-cm line scale converted to 1 to 15, second sip
[7] = Commercial Blend (total 518 mg/l) vs 97% rebaudioside A (total 498), room temperature, 31 panelists
[8] = Rebaudioside A & stevioside blend (total 789 mg/l) vs 500 ppm 97% rebaudioside A, 41 panelists
[9] = Rebaudioside B & stevioside blend (total 801 mg/l) vs 97% rebaudioside A (500 ppm), 43 panelists
[10] = Rebaudioside B blend (total 496 mg/l, about 21% Reb B) vs 97% rebaudioside A (total 498), 38 panelists

For `OC[C@H]1O[C@@](CO)(O[C@H]2O[C@H](CO)[C@@H](O)[C@H](O)[C@H]2O)[C@@H](O)[C@@H]1O` [Sucrose, sucrose], the “ANISE: Aftertaste (mean intensity)” value [1, 4] was 0.13, the “ARTIFICIAL SWEETENER/CHEMICAL: Aftertaste (mean intensity)” value [1, 4] was 0.12 and the “SWEET: Aftertaste (mean intensity)” value [1, 4] was 3.92. The “TOTAL FLAVOR: Aftertaste (mean intensity)” value [1, 4] was 4.32, the “TRUE BITTER: Aftertaste (mean intensity)” value [1, 4] was 0.15 and the “ANISE: First Sip (mean intensity)” value [1, 5] was 0.52. For the same compound, the “ARTIFICIAL SWEETENER/CHEMICAL: First Sip (mean intensity)” value [1, 5] was 0.59, the “MOUTHCOATING: First Sip (mean intensity)” value [1, 5] was 0.76 and the “SWEET: First Sip (mean intensity)” value [1, 5] was 8.06. For the same compound, the “TOTAL FLAVOR: First Sip (mean intensity)” value [1, 5] was 8.67, the “TOTAL OFF FLAVOR: First Sip (mean intensity)” value [1, 5] was 0.89 and the “TRUE BITTER: First Sip (mean intensity)” value [1, 5] was 0.29. The “ANISE: Second Sip (mean intensity)” value [1, 6] was 0.41, the “ARTIFICIAL SWEETENER/CHEMICAL: Second Sip (mean intensity)” value [1, 6] was 0.41 and the “MOUTHCOATING: Second Sip (mean intensity)” value [1, 6] was 0.89. The “SWEET: Second Sip (mean intensity)” value [1, 6] was 7.43, the “TOTAL FLAVOR: Second Sip (mean intensity)” value [1, 6] was 7.86 and the “TOTAL OFF FLAVOR: Second Sip (mean intensity)” value [1, 6] was 0.49. The “TRUE BITTER: Second Sip (mean intensity)” value [1, 6] was 0.24, the “Anise, comparison between the samples” value ([1]; aftertaste) was “Lowest” and the “Artificial Sweetener/Chemical, comparison between the samples” value ([1]; aftertaste) was “Lowest”. For the same compound, the “Sweetness, comparison between the samples” value ([1]; aftertaste) was “Lowest”, the “Total Flavor, comparison between the samples” value ([1]; aftertaste) was “Lowest” and the “True Bitter, comparison between the samples” value ([1]; aftertaste) was “Lowest”. The “Anise, comparison between the samples” value ([1]; first sip) was “Lowest”, the “Artificial Sweetener/Chemical, comparison between the samples” value ([1]; first sip) was “Lowest” and the “Mouthcoating, comparison between the samples” value ([1]; first sip) was “Lowest”. For the same compound, the “Sweetness, comparison between the samples” value ([1]; first sip) was “Lowest”, the “Total Flavor, comparison between the samples” value ([1]; first sip) was “Lowest” and the “Total Off Flavor, comparison between the samples” value ([1]; first sip) was “Lowest”. The “True Bitter, comparison between the samples” value ([1]; first sip) was “Lowest”, the “Anise, comparison between the samples” value ([1]; second sip) was “Lowest” and the “Artificial Sweetener/Chemical, comparison between the samples” value ([1]; second sip) was “Lowest”. The “Mouthcoating, comparison between the samples” value ([1]; second sip) was “Lowest”, the “Total Flavor, comparison between the samples” value ([1]; second sip) was “Lowest” and the “Total Off Flavor, comparison between the samples” value ([1]; second sip) was “Lowest”. The “True Bitter, comparison between the samples” value ([1]; second sip) was “Lowest”.

For `C=C1C[C@@]23CC[C@H]4[C@@](C)(CCC[C@@]4(C)C(=O)O[C@@H]4O[C@H](CO)[C@@H](O)[C@H](O)[C@H]4O)[C@@H]2CC[C@]1(O[C@@H]1O[C@H](CO)[C@@H](O)[C@H](O)[C@H]1O[C@@H]1O[C@H](CO)[C@@H](O)[C@H](O)[C@H]1O)C3` [stevioside], the “effect of its presence on the solubility of rebaudioside B” value [2] was “slightly reduces”.

For rebaudioside A [97% rebaudioside A], the “# preferring” value [3, 7] was 20, the “# sweeter” value [3, 7] was 15 and the “# preferring” value [3, 8] was 37. For the same compound, the “# sweeter” value [3, 8] was 19, the “# preferring” value [3, 9] was 22 and the “# sweeter” value [3, 9] was 13. For the same compound, the “# preferring” value [3, 10] was 11 and the “# sweeter” value [3, 10] was 11.
